Measurements from ChEMBL document CHEMBL1130465, “Peptidic prodrugs of novel aminomethyl-THF 1-methylcarbapenems” (1997).
Values after ≈ are worked out from the molar mass of the structure shown.

Assays:
Assay type in all cases: functional
Morganella morganii = test: In vitro antimicrobial activity against Morganella morganii GC 2213 strain; conditions: Morganella morganii; read-out: MIC
[1] = system: Stenotrophomonas maltophilia; test: In vitro antimicrobial activity against Xanthomonas maltophilia GC 562 strain
Enterococcus faecalis = test: In vitro antimicrobial activity against Enterococcus faecalis GC 842 strain; conditions: Enterococcus faecalis; read-out: MIC
Escherichia coli [2] = test: In vitro antimicrobial activity against Escherichia coli GC 1792 strain; conditions: Escherichia coli; read-out: MIC
Staphylococcus aureus [3] = test: In vitro antimicrobial activity against Staphylococcus aureus ATCC 29213 strain
Enterococcus faecium = test: In vitro antimicrobial activity against Enterococcus faecium GC 1182 strain; conditions: Enterococcus faecium; read-out: MIC
Mus musculus [4] = test: Tested for oral activity against Escherichia coli #311 infection in mice after single subcutaneous dose(SSC)
Enterobacter cloacae = test: In vitro antimicrobial activity against Enterobacter cloacae GC 2209 strain
Escherichia coli [5] = test: In vitro antimicrobial activity against Escherichia coli GC 2205 strain
[6] = system: Acinetobacter calcoaceticus; test: In vitro antimicrobial activity against Acinetobacter calcoaceticus GC 756 strain; conditions: Acinetobacter calcoaceticus; read-out: MIC
Escherichia coli [7] = test: In vitro antimicrobial activity against Escherichia coli ATCC 25922 strain
Pseudomonas aeruginosa [8] = test: In vitro antimicrobial activity against Pseudomonas aeruginosa ATCC 27853 strain; conditions: Pseudomonas aeruginosa, ATCC 27853; read-out: MIC
Pseudomonas aeruginosa [9] = test: In vitro antimicrobial activity against Pseudomonas aeruginosa GC 1544 strain; conditions: Pseudomonas aeruginosa; read-out: MIC
Staphylococcus aureus [10] = test: In vitro antimicrobial activity against Staphylococcus aureus GC 2220 strain; conditions: Staphylococcus aureus; read-out: MIC
Citrobacter freundii = test: In vitro antimicrobial activity against Citrobacter freundii GC 2211 strain; conditions: Citrobacter freundii; read-out: MIC
Mus musculus [11] = species on record: Mus musculus; test: animal or person; conditions: Mus musculus, po; read-out: ED50
Description: Tested for oral activity against Escherichia coli #311 infection in mice after single oral dose(SOD)

Mus musculus [12] = test: Tested for oral activity against Staphylococcus aureus smith infection in mice after single subcutaneous dose(SSC); 0.12-0.25
Mus musculus [13] = test: Tested for oral activity against Staphylococcus aureus smith infection in mice after single oral dose(SOD); 4-8
[14] = Ratio of ED50 of single oral dose to ED50 of single subcutaneous dose against Staphylococcus aureus smith infection in mice
Mus musculus [15] = test: Tested for oral activity against Escherichia coli #311 infection in mice after single subcutaneous dose(SSC); 0.5-1

Row | MIC (Morganella morganii) | MIC [1] | MIC (Enterococcus faecalis) | MIC (Escherichia coli [2]) | MIC (Staphylococcus aureus [3]) | MIC (Enterococcus faecium) | MIC (Enterobacter cloacae) | MIC (Escherichia coli [5]) | MIC [6] | MIC (Escherichia coli [7]) | MIC (Pseudomonas aeruginosa [8]) | MIC (Pseudomonas aeruginosa [9]) | MIC (Staphylococcus aureus [10]) | MIC (Citrobacter freundii) | Structure (SMILES) | ED50 (Mus musculus [4]) | ED50 (Mus musculus [11]) | ED50 (Mus musculus [12]) | ED50 (Mus musculus [13]) | Ratio [14] | ED50 (Mus musculus [15])
1 | 2 µg/mL (≈ 4.09 µM) | > 128 µg/mL | 1 µg/mL (≈ 2.04 µM) | 0.5 µg/mL (≈ 1.02 µM) | 0.25 µg/mL (≈ 0.511 µM) | 128 µg/mL (≈ 261 µM) | 4 µg/mL (≈ 8.17 µM) | 0.06 µg/mL (≈ 0.123 µM) | 32 µg/mL (≈ 65.4 µM) | 0.5 µg/mL (≈ 1.02 µM) | 64 µg/mL (≈ 131 µM) | 128 µg/mL (≈ 261 µM) | 8 µg/mL (≈ 16.3 µM) | 8 µg/mL (≈ 16.3 µM) | C[C@H]1C(S[C@@H]2CCO[C@@H]2CNC(=O)[C@@H](N)Cc2ccccc2)=C(C(=O)O)N2C(=O)[C@H]([C@@H](C)O)C12 (some centres undefined) | 13 mg/kg | 24 mg/kg | – | – | – | –
2 | 2 µg/mL (≈ 5.84 µM) | > 128 µg/mL | 2 µg/mL (≈ 5.84 µM) | < 0.06 µg/mL | < 0.06 µg/mL | 128 µg/mL (≈ 374 µM) | < 0.06 µg/mL | 0.12 µg/mL (≈ 0.35 µM) | 2 µg/mL (≈ 5.84 µM) | < 0.06 µg/mL | 16 µg/mL (≈ 46.7 µM) | 32 µg/mL (≈ 93.5 µM) | 4 µg/mL (≈ 11.7 µM) | 0.25 µg/mL (≈ 0.73 µM) | C[C@H]1C(S[C@H]2COC[C@H]2CN)=C(C(=O)O)N2C(=O)[C@H]([C@@H](C)O)C12 (some centres undefined) | – | – | 0.12 mg/kg | 4 mg/kg | 33 | 0.5 mg/kg
